Laboratory results published in PubChem BioAssay AID743457 (The Scripps Research Institute Molecular Screening Center, 2014).
Activity calls are given as the source filed them.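 The calls were made as follows: active = IC50 at or below a set limit; inactive = IC50 above that limit.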

target: Group 3 secretory phospholipase A2 (Homo sapiens) (UniProt Q9NZ20); assay: HGIII-sPLA2 enzyme inhibition potency – biochemical, QFRET, IC50, dose response (AID 743457); details: recombinant hGIII-sPLA2, BODIPY PC-A2 QFRET fluorescence
Sequence (Q9NZ20 whole entry, looked up): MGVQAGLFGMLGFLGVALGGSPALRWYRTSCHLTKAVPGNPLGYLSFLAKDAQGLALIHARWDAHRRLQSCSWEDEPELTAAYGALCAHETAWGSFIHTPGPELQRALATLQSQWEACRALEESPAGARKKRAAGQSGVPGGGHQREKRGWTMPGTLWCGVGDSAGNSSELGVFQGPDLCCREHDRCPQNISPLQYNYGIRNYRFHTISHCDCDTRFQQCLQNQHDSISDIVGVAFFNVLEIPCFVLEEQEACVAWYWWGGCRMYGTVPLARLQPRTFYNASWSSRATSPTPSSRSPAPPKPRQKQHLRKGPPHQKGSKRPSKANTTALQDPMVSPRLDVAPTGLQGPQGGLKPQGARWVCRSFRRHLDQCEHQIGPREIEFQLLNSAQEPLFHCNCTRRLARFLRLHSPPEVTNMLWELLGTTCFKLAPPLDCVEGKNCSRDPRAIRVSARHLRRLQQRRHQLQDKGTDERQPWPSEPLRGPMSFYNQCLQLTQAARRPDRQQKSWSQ

Compound | IC50
O=[N+]([O-])c1ccc(O)c(N=Cc2sc3ccccc3c2O)c1 | > 122 µM (inactive)
O=C(N/N=C/c1cc(Cl)cc([N+](=O)[O-])c1O)C(O)(c1ccccc1)c1ccccc1 | inactive
Cc1ccccc1C(=O)NNC(=S)NC(=O)c1cccs1 | > 40.6 µM (inactive)
O=C1c2ccccc2C(=O)c2c(NCCCN(CCO)CCO)cccc21 | > 122 µM (inactive)
CC(C)CC(=O)NC(=S)NNC(=O)c1ccc(NC(=O)C2CCCCC2)cc1 | > 122 µM (inactive)
C/C(=N\NC(=S)NCC(C)(C)C)c1cc(F)cc(F)c1O | > 122 µM (inactive)
CCCC[n+]1c2ccccc2cc2ccccc21 | inactive
Cc1ccc2sc(NNC(=O)c3ccc4c(c3)OCCO4)nc2c1C | inactive
COc1ccc(C(=O)NNC(=S)NC(=O)c2cccs2)cc1 | inactive
CCC(C)N1C(=O)/C(=C\c2cc3c4c(c2)CCCN4CCC3)C(=O)NC1=S (stereo not drawn) | inactive
CNC(=S)N/N=C/c1cc(Br)cc(Br)c1O | > 122 µM (inactive)
O=C(CCN1C(=O)/C(=C/c2ccccc2Cl)SC1=S)NNC(=O)c1ccccc1O | inactive
COc1ccc2nc(Nc3nc4cc5c(cc4s3)OCO5)sc2c1 | inactive
C/C(=N\NC(=O)c1nnn(-c2nonc2N)c1CN(C)c1ccccc1)c1ccccc1O | inactive
CC(C)(C)c1csc(NNC(=O)c2ccc(Br)cc2)n1 | > 122 µM (inactive)
COc1ccc(C(=O)NC(=S)NNC(=O)c2c(-c3ccccc3)noc2C)cc1OC | > 122 µM (inactive)
CNC(=S)NN=C(C)c1ccc(OC)cc1O | > 122 µM (inactive)
C=CCS/C(N)=N\N=C\c1cc(Br)cc([N+](=O)[O-])c1O | > 40.6 µM (inactive)
